# In patent US10648012B2, “Assay for inhibitors of equilibrative or concentrative nucleoside transporters” (ALBERT EINSTEIN COLLEGE OF MEDICINE OF YESHIVA UNIVERSITY, priority 2013, dated 2020):
# Read-outs that look alike come from different tables or passages of the source.
# Columns and labels:
# WT yeast = assay: 5-FUrd IC50 on WT yeast after storage of the 5-FUrd sample; type: cell-based; settings: Saccharomyces cerevisiae, 90 h
# Method: (§1) Concentration dependence of 5-FUrd cytotoxic effects on PfENT1-expressing fui1Δ S. cerevisiae and on the parental fui1Δ strain: To determine the dose-response relationship for killing by 5 FUrd, 200 μl cultures in rich media (yeast extract, peptone, 2% dextrose, YPD) were inoculated with 3×10^6 cells/ml of PfENT1-expressing fui1Δ yeast and fui1Δ yeast. The cultures were grown in 96-well microtiter plates at 30° C., without shaking, in the absence of and in the presence of increasing concentrations of 5-FUrd (range 0.1-1,000 μM). After 570 minutes, the OD600 was measured using a BioRad Benchmark Plus microplate reader to determine the extent of cell growth. The OD600 was plotted as a function of drug concentration and the IC50 for 5-FUrd was calculated (FIG. 2). […] Though yeast grow optimally with constant aeration, a similar 5-FUrd IC50 was obtained for PfENT1-expressing fui1Δ yeast whether the plate was shaken continuously at 200 rpm or unshaken for 570 minutes of growth (IC50=9 μM).
# 5-FUrd Stability. Stability of 5-FUrd under the assay conditions is essential. The assay will involve yeast growth in the presence of 5-FUrd for 10-16 hrs at 30° C. To test 5-FUrd stability a sample of 5-FUrd was split into two aliquots. One was stored at −20° C. and the other at 30° C. for 90 hrs. The 5-FUrd IC50 was then determined for WT yeast as described above. […]
# [1] = 5-FUrd stability under the assay growth conditions; type: physicochemical; settings: 30° C.
# Method: 5-FUrd Stability. Stability of 5-FUrd under the assay conditions is essential. The assay will involve yeast growth in the presence of 5-FUrd for 10-16 hrs at 30° C. To test 5-FUrd stability a sample of 5-FUrd was split into two aliquots. One was stored at −20° C. and the other at 30° C. for 90 hrs. The 5-FUrd IC50 was then determined for WT yeast as described above. […] Thus, 5-FUrd is stable under the assay growth conditions for at least 90 hrs. The assay should only require 10-16 hrs of growth, so 5-FUrd is stable on the timescale of the assay.
# [2] = system: PfENT1-expressing fui1Δ yeast; assay: 5-FUrd cytotoxicity assay, growth (OD600) of PfENT1-expressing fui1Δ yeast; type: cell-based; settings: Saccharomyces cerevisiae, 9.5 h
# Method: as §1
# PfENT1 [3] = target: T1, PfENT1 (Plasmodium falciparum, UniProt Q8IDM6); assay: Inhibition of [3H]-adenine uptake by PfENT1-expressing Xenopus oocytes; type: cell-based; settings: increasing concentrations of 5-FUrd
# T1 sequence (Q8IDM6 1-422): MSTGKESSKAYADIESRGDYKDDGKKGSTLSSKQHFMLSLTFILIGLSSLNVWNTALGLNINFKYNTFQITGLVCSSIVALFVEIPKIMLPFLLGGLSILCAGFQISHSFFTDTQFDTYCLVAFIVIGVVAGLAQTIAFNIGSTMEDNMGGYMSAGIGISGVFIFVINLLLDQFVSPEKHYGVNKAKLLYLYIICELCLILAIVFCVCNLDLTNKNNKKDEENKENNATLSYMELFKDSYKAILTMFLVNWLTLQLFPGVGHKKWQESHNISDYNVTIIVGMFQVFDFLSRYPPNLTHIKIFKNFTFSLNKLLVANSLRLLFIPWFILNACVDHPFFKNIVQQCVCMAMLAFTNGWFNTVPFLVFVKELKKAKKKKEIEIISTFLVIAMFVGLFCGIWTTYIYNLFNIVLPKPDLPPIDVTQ
# fui1Δ yeast = assay: 5-FUrd cytotoxicity assay, growth (OD600) of parental fui1Δ yeast; type: cell-based; settings: Saccharomyces cerevisiae, 9.5 h, read-out: 5-FUrd IC50 for killing
# Method: as §1
# PfENT1 [4] = target: T1, PfENT1; settings: cited from earlier work
smiles,measurement,setting,value
"O=c1[nH]c(=O)n([C@@H]2O[C@H](CO)[C@@H](O)[C@H]2O)cc1F [5-FUrd, 5-fluorouridine]",IC50,"WT yeast; 5-FUrd sample stored at 30° C. for 90 hrs, n=3",60 ± 3 µM
same,IC50,WT yeast; 5-FUrd sample stored at −20° C. for 90 hrs,46 ± 2 µM
same,time stable under the assay growth conditions,[1],at least 90 hrs
same,IC50,"[2]; read-out: 5-FUrd IC50, shaken versus unshaken comparison",9 µM
same,IC50,[2]; read-out: 5-FUrd IC50 for killing,12 µM
same,Ki,PfENT1 [3],1100 µM
same,IC50,fui1Δ yeast,6400 µM
OCCN(CCO)c1nc(N2CCCCC2)c2nc(N(CCO)CCO)nc(N3CCCCC3)c2n1 [dipyridamole],inhibition of PfENT1,PfENT1 [4],do not inhibit
O=[N+]([O-])c1ccc(CSc2ncnc3c2ncn3[C@@H]2O[C@H](CO)[C@@H](O)[C@H]2O)cc1 [p-nitrobenzylthioinosine],inhibition of PfENT1,PfENT1 [4],do not inhibit
COc1cc(C(=O)OCCCN2CCCN(CCCOC(=O)c3cc(OC)c(OC)c(OC)c3)CC2)cc(OC)c1OC [dilazep],inhibition of PfENT1,PfENT1 [4],do not inhibit
